Measured values taken from paper PMC6920806, “Synthesis of β-D-galactopyranoside-Presenting Glycoclusters, Investigation of Their Interactions with Pseudomonas aeruginosa Lectin A (PA-IL) and Evaluation of Their Anti-Adhesion Potential” (Biomolecules, 2019).
pIC50: −log10 of the molar value. Entries after “also recorded” stand apart in the source; their conditions may differ. Where two headings read alike, the source gives them in different places.

Experiments:
[1] = system: adhesion of P. aeruginosa (ST 1763) to epithelial bronchial cells (CuFi-1); test: Ex vivo bacterial adherence assay: inhibition of P. aeruginosa adhesion to epithelial cells; format: cell-based, Pseudomonas aeruginosa; settings: for inhibitory effect on bacterial adhesion compared to the control / bacterial adhesion compared to the untreated control: 2 h incubation; for bacterial adhesion compared to the untreated control: highest concentration (2 mM); for concentrations with significant protecting (anti-adhesion) effect: p < 0.05, Dunnett test
Method: Epithelial CuFi-1 cells (an immortalized epithelial cell line derived from cystic fibrosis human lungs, ATCC, Kielpin, Poland) were labelled with PKH67 (Fluorescent Cell Linker Kit, Sigma-Aldrich, St. Louis, MO, USA), a green fluorescent membrane marker, as follows. An aliquot of cell suspension containing 7 × 10^6 cells was washed with PBS buffer and centrifuged (100× g for 5 min). The cell pellet was resuspended in 250 µL of Diluent C (Fluorescent Cell Linker Kit, Sigma-Aldrich, St. Louis, MO, USA). Immediately, an equal volume of 8 µM PKH67 in Diluent C (2 µL of PKH67 in 248 µL of Diluent C) was added to the cell suspension. After 5 min incubation at room temperature with periodic mixing, the staining reaction was stopped by adding an equal volume of 1% Fetal Bovine Serum (FBS, Gibco^TM Invitrogen, Paisley, UK) in PBS. After 1 min incubation with FBS, the suspension was centrifuged (100× g for 10 min). Finally, the cells were washed three times with Bronchial Epithelial Cell Growth Basal Medium (Lonza, Basel, Switzerland), followed by centrifugation (100× g for 5 min).
Pseudomonas aeruginosa strain 1763 (University Hospital Motol, Prague, Czech Republic) was stained with PKH26 (Fluorescent Cell Linker Kit, Sigma-Aldrich, St. Louis, MO, USA), a red fluorescent membrane marker. Bacteria were grown in a suspension culture in PS medium (peptone/casein digest) in an Erlenmeyer flask for 14 h. The culture was washed with PBS buffer and centrifuged (13,400× g for 5 min). The pellet containing 1.5 × 10^9 bacteria was resuspended in 125 µL of Diluent C (Fluorescent Cell Linker Kit, Sigma-Aldrich, St. Louis, MO, USA) and an equal volume of 16 µM PKH26 in Diluent C (2 µL of PKH26 in 123 µL of Diluent C) was added to the bacterial suspension. The bacteria/dye suspension was incubated for 30 min at room temperature with periodic mixing. The staining was quenched by adding an equal volume of 1% BSA (Bovine Serum Albumin, Merck, Kenilworth, NJ, USA) in PBS. The suspension was incubated with BSA for 1 min to allow the binding of excess dye and then centrifuged (15,700× g for 10 min). Bacteria were washed two times with PBS, followed by centrifugation (13,400× g for 7.5 and 5 min).
Epithelial cells CuFi-1 stained with PKH67 were seeded at 8.4 × 10^4 cells/well onto 96-well plates (CellBIND® 96-well Flat Clear Bottom Black Polystyrene Microplates, Corning Incorporated, Corning, NY, USA) and incubated for 42–45 h at 37 °C, 5% CO2 to form a confluent monolayer and regenerate. Prior to the assay, wells were washed with PBS. Compounds 4, 7, 10 and 13 were serially diluted with PBS to the desired concentrations. PKH26-stained bacteria P. aeruginosa were added to the diluted inhibitor solutions. Bacterial suspensions were immediately added to the wells (50 µL/well). The input ratio was about 100 bacteria per epithelial cell (8.4 × 10^6 bacteria/well). A suspension without any inhibitor was used as a control. After 2 h incubation at room temperature, the wells were extensively washed three times with PBS to remove non-adhered bacteria. The fluorescence of adhered P. aeruginosa cells (Ex 522 nm, Em 569 nm for PKH26) on epithelial cells (Ex 470 nm, Em 505 for PKH67) was quantified using the spectrofluorometer Tecan Infinite M200 Pro (Tecan Group Ltd., Männedorf, Switzerland). Results were expressed as a relative fluorescence ratio of P. aeruginosa/CuFi-1. Three independent incubations were performed.

lectin PA-IL [2] = molecular target: T1, lectin PA-IL (Pseudomonas aeruginosa, UniProt Q05097); test: Analytical ultracentrifugation (sedimentation velocity), cross-linking of lectin; settings: for cross-linking of PA-IL (formation of the 6.4 S particle): protein:ligand ratios 1:0.1, 1:1, 1:10; for level of cross-linking (6.4 S octameric species): 1:0.1 protein to ligand ratio, 22 µM PA-IL
T1 construct: made in house; host or cells: Escherichia coli BL21(DE3)
T1 sequence (Q05097 2-122): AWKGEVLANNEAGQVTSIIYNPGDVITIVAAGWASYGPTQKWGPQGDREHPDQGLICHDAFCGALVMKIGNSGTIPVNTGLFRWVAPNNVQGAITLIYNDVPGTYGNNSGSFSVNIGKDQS
Method: Analytical ultracentrifugation experiments were performed using ProteomeLab XL-I analytical ultracentrifuge (Beckman Coulter, Indianapolis, IN, USA) equipped with an An-60 Ti rotor. Sedimentation velocity experiments were conducted in titanium double-sector centerpiece cells (Nanolytics Instruments, Potsdam, Germany) loaded with 390 µL of both protein sample and reference solution (PBS buffer, pH = 7.5). PA-IL without the added ligand and PA-IL samples pre-incubated with different concentrations of galactosylated dendrimers 4, 7, 10 and 13 and D-galactose (protein:ligand ratios of 1:0.1, 1:1 and 1:10) were analyzed by the sedimentation velocity experiment. All the measurements were performed in PBS buffer with 22 µM PA-IL. Data were collected using absorbance optics at 25 °C at a rotor speed of 48,000 rpm. Scans were collected at 280 nm (or alternatively at 294 nm to decrease the absorbance signal of the samples containing excess of the UV-absorbing ligands 4 and 10) at 5-min intervals and 0.003 cm spatial resolution in continuous scan mode. The partial specific volume of the protein and the solvent density and viscosity were calculated from the amino acid sequence and buffer composition, respectively, using the software Sednterp (http://bitcwiki.sr.unh.edu). The data were analyzed with the continuous c(s) distribution model implemented in the program Sedfit 15.01b. For the regularization procedure, a confidence level of 0.95 was used. The plots of c(s) distributions were created in GUSSI 1.3.1 [28].

lectin PA-IL [3] = molecular target: T1, lectin PA-IL; test: SPR inhibition of PA-IL binding to immobilized D-galactosides; settings: for Potency (IC50 of standard/IC50 of inhibitor) / β (Potency/Valency): standard D-galactose
Method: Surface plasmon resonance (SPR) experiments were performed on a BIAcore T200 instrument (GE Healthcare, Chicago, IL, USA) at 25 °C, using HBST running buffer (10 mM HEPES, 150 mM NaCl, 0.5 mM CaCl2, 0.05% Tween 20, pH = 7). A CM5 sensor chip (GE Healthcare, Chicago, IL, USA) covered with a carboxymethylated dextran matrix was used for ligand immobilization. The sensor chip surface was activated with N-ethyl-N-(3-dimethylaminopropyl)carbodiimide/N-hydroxysuccinimide solution and then coated with streptavidin (Sigma-Aldrich, St. Louis, MO, USA) in 10 mM acetate pH = 5.0 according to the manufacturer’s standard protocol to a final response of 7000 RU. Unreacted groups were blocked with 1 M ethanolamine-HCl, pH = 8.5. 0.5 mM biotinylated carbohydrate (1:1 mixture of biotin-α-D-galactoside and biotin-β-D-galactoside for measuring channel and α-L-fucoside for blank channel, all Lectinity, Moskow, Russia) was injected into a particular channel at a flow rate of 5 μL min^−1.
In the experimental setup, SPR inhibition measurements were carried out simultaneously on both measuring and blank channels at a flow rate of 5 µL min^−1. […] The response of the blank channel was subtracted from the response of lectin bound to the galactose-modified surface at equilibrium and plotted against the concentration of inhibitor in order to determine IC50 (concentration of inhibitor resulting in 50% inhibition of binding). As IC50 is not a constant and depends on the experimental set-up, a parameter called potency was used for characterization. The potency of a tested inhibitor is the ratio of IC50 of a chosen standard inhibitor (in this case, D-galactose) and the inhibitor in question. Pure lectin PA-IL was used as a control (0% inhibition).

[4] = read-out: IC50 (concentration of inhibitor resulting in 50% inhibition of binding), SPR, PA-IL 45 µM, galactoside-modified chip, 25 °C

SMILES	inhibitory effect on bacterial adhesion compared to the control [1]	cross-linking of PA-IL (formation of the 6.4 S particle) (lectin PA-IL [2])	Potency (IC50 of standard/IC50 of inhibitor) (lectin PA-IL [3]; SPR)	β (Potency/Valency) (lectin PA-IL [3]; SPR)	pIC50 (lectin PA-IL [3]; [4])	lower concentrations resulting in statistically significantly increased fluorescent signal (adhered bacteria) [1] [µM]	bacterial adhesion compared to the untreated control [1]	concentrations with significant protecting (anti-adhesion) effect [1] [mM]	level of cross-linking (6.4 S octameric species) (lectin PA-IL [2])	pIC50 (lectin PA-IL [3])
COC(=O)c1cc(OCc2cn(CCOCCOCCOCCn3cc(CO[C@@H]4O[C@H](CO)[C@H](O)[C@H](O)[C@H]4O)nn3)nn2)c(OCc2cn(CCOCCOCCOCCn3cc(CO[C@@H]4O[C@H](CO)[C@H](O)[C@H](O)[C@H]4O)nn3)nn2)c(OCc2cn(CCOCCOCCOCCn3cc(CO[C@@H]4O[C@H](CO)[C@H](O)[C@H](O)[C@H]4O)nn3)nn2)c1 [Compound 4]	no inhibitory effect; also recorded: no visible protective effect	did not form intermolecular cross-links	27.5	9.2	5.17					
OC[C@H]1O[C@@H](OCc2cn(CCn3cc(COCC(COCc4cn(CCn5cc(CO[C@@H]6O[C@H](CO)[C@H](O)[C@H](O)[C@H]6O)nn5)nn4)(COCc4cn(CCn5cc(CO[C@@H]6O[C@H](CO)[C@H](O)[C@H](O)[C@H]6O)nn5)nn4)COCc4cn(CCn5cc(CO[C@@H]6O[C@H](CO)[C@H](O)[C@H](O)[C@H]6O)nn5)nn4)nn3)nn2)[C@H](O)[C@@H](O)[C@H]1O [Compound 13]		induced the formation of the 6.4 S particle			5.37	≤ 125	~42%	≥ 1	~ 15%	
COC(=O)c1cc(OCc2cn(CCn3cc(CO[C@@H]4O[C@H](CO)[C@H](O)[C@H](O)[C@H]4O)nn3)nn2)c(OCc2cn(CCn3cc(CO[C@@H]4O[C@H](CO)[C@H](O)[C@H](O)[C@H]4O)nn3)nn2)c(OCc2cn(CCn3cc(CO[C@@H]4O[C@H](CO)[C@H](O)[C@H](O)[C@H]4O)nn3)nn2)c1 [Compound 10]		induced the formation of the 6.4 S particle	25.3	8.4		≤ 125	approximately 32%	≥ 1	~ 15%	5.13
OC[C@H]1O[C@@H](OCc2cn(CCOCCOCCOCCn3cc(COCC(COCc4cn(CCOCCOCCOCCn5cc(CO[C@@H]6O[C@H](CO)[C@H](O)[C@H](O)[C@H]6O)nn5)nn4)(COCc4cn(CCOCCOCCOCCn5cc(CO[C@@H]6O[C@H](CO)[C@H](O)[C@H](O)[C@H]6O)nn5)nn4)COCc4cn(CCOCCOCCOCCn5cc(CO[C@@H]6O[C@H](CO)[C@H](O)[C@H](O)[C@H]6O)nn5)nn4)nn3)nn2)[C@H](O)[C@@H](O)[C@H]1O [Compound 7]	no inhibitory effect; also recorded: no visible protective effect	induced the formation of the 6.4 S particle	25.6	6.4	5.14				~ 30%	
